The test has as its target IDO enzyme (Homo sapiens (Human), UniProt P14902). The experiment in a line: IDO enzyme inhibitory activity. The class given is biochemical. Particulars: OD321 nm, 60 min. On the procedure:
Firstly, the IDO gene was amplified by PCR, the PCR amplification products were recovered, and then the pET28a plasmid (purchased from Shanghai Baoman Biotechnology Co., Ltd.) and the IDO gel recovery products were digested with EcoR I and Xho I restriction endonucleases (37° C., digestion for 2 h), electrophorized and recovered. The recovered products were ligated overnight by a T4 ligase and then the ligation products were added to DH5α competent cells, placed on ice for 30 min, heat-shocked at 42° C. for 90 s, cultured on a shaker, and seeded to a plate. Monoclonies were picked, identified by PCR and then by sequencing.
The constructed BL21 containing the pET28a-IDO plasmid was cultured at 37° C. to OD600=0.6-0.8, and a final concentration of 7 μM of chlorine methemoglobin and 1 mM of IPTG (isopropyl-β-D-thiogalactoside) were added for induction at 28° C. for 4 h; after the induction, the cell was centrifuged at 6000 rpm at 4° C., the collected cells were washed once with 20 mM PBS (pH6.5), and centrifuged and collected again.
The collected cells were resuspended with a lysis solution (20 mM PBS pH 6.5), ultrasonically lysed (40% of power, lysis for 20 min, placed on ice), the lysed bacteria were centrifuged at 13000 rpm for 15 min, precipitate was discarded and the supernatant was maintained; the nickel column was equilibrated with the lysis solution (20 mM PBS pH 6.5) for 3 column volumes, and then the lysis supernatant was loaded onto the nickel column; after loading, four column volumes of a rinsing solution (20 mM PBS pH 6.5, 20 mM imidazole) were used for washing, and finally protein was eluted with eluent (20 mM PBS pH 6.5, 250 mM imidazole); the eluted protein solution was dialyzed for 4 h, and the dialysis solution was 20 mM PBS, pH 6.5. After the dialysis, the protein sample was concentrated, packed, flash frozen by liquid nitrogen, and stored at −80° C. for further use.
Firstly, the compound was subject to a 3-fold gradient dilution. 1 μL of each concentration was added to a 96-well plate; 50 μL of the IDO enzyme solution (final concentration 600 ng/100μL) was added: 25 μL of substrate 1 mixture solution was added, 25 μL of substrate 2 mixture solution was added to initiate the reaction. Finally, the plate was read at OD321 nm, 60 min.

A word on the IC50: it is the midpoint of a concentration-inhibition curve. The low end stands for greater potency in that assay, the high end for weaker potency in that assay.

IDO enzyme, sequence (P14902 whole entry): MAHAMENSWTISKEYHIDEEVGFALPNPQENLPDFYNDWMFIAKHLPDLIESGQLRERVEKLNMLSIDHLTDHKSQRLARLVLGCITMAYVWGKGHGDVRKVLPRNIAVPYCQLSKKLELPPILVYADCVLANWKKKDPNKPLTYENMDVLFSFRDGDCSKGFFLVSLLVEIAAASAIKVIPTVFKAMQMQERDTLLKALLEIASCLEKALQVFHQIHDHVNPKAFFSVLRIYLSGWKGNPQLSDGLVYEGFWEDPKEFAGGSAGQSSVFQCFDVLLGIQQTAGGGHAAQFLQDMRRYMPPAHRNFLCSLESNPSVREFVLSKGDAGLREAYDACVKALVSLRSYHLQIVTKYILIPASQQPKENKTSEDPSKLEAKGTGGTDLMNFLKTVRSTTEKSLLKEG

On to `CS(=O)(CCNc1nonc1/C(=N/O)Nc1ccc(F)c(Br)c1)=NC#N` (racemic) [compound 6, (±)(Z)—N-(3-bromo-4-fluorophenyl)-N′-hydroxy-4-((2-(thio-methylsulfoxidecyanoimine)ethyl)amino)-1,2,5-oxadiazole-3-carboxamidine], for which the IC50 came out at 11 nM.

Source of the values: patent US11053207B2, “Indoleamine-2,3-dioxygenase inhibitor and preparation method therefor” (SHANGHAI INSTITUTE OF ORGANIC CHEMISTRY, CHINESE ACADEMY OF …, priority 2014, dated 2021).
